Results from patent US5120713A, “Treatment of obesity with an alpha-2-adrenergic agonist and a growth hormone releasing peptide” (Applied Research Systems ARS Holding N.V., priority 1990, dated 1992).
No end group written: not given here.

Experiments:
[1] = tested on: plasma GH; test: Plasma GH response (RIA) in prepubertal obese children after clonidine, galanin and/or GHRH; type: in vivo, human (obese children); conditions: for Mean Peak GH Response: Obese patient group, Clo 150 micrograms/m^2 oral at time 0, GHRH 1 microgram/kg i.v. bolus at 60 min, Gal 50 pmol/kg/min infusion 55-120 min
Procedure: Eight prepubertal obese children (boys), aged 10 to 12.4 years, all in good general health and taking no medication, participated in the study with informed consent (parent and child). All had height within normal percentiles for chronological age. Bone age was advanced 6-24 months in all but one patient and weight was above the […] for chronological age in all cases. The children were tested six times at random intervals ranging from 7 to 10 days, each patient serving as their own control. Studies commenced at 0900 h after an overnight fast and bed rest and thirty minutes after the insertion of a nontrombogenic catheter for blood withdrawal in a forearm vein. The study consisted of administering clonidine (Catapresan, Boehringer Ingelheim, Spain) orally at 150 micrograms/m^2 at time 0 followed by administering GHRH (GRF 1-29, Serono, Spain) as an intravenous bolus at 1 microgram/kg at time 60 minutes. The control experiments consisted of administering on separate occasions either clonidine at time 0 or GHRH at time 60 minutes. Blood samples for GH assays (RIA, BioMerieux, France) were taken at 15 minute intervals for two hours. The mean intra-assay coefficient of variation was 5.9, 4.6 and 3.9% at mean GH concentrations of 1.5, 8 and 24 micrograms/L respectively. To avoid inter-assay variations, all samples from a subject were run in the same assay.
(§1) Galanin (Gal) was administered alone, with clonidine (Clo) and with GHRH by infusion as a saline solution at 50 pmol/kg/min through a Millex-GY (0.22 um, Millipore) filter at time 55 to 120 minutes in all experiments. Also, for comparison purposes a similar group of short stature children diagnosed as having constitutional growth delay (CGD) were administered GHRH, galanin plus GHRH, and clonidine plus GHRH (previous study) by the same procedure.

[2] = tested on: plasma GH; test: Plasma GH response in short children with constitutional growth delay (CGD); type: in vivo, human (short stature children
Procedure: as §1

[3] = tested on: GH; conditions: normal children and adolescents; reported (ref 9); cited from earlier work

Compound | Mean Peak GH Response [1] [µg/L] | mean peak (maximal) plasma GH level ([1]; obese children) [µg/L] | plasma GH response (in words) ([1]; obese children) | maximal GH value in one patient ([1]; obese children, single responding patient, at time 105 min) [µg/L] | time of GH peak after administering GHRH ([1]; obese children) [min] | Mean Peak GH Response ([2]; CGD patient group, same procedure) [µg/L] | mean GH peak ([2]; control group of short children with constitutional growth delay) [µg/L] | GHRH-induced GH response [3] [µg/L]
Clc1cccc(Cl)c1NC1=NCCN1 [Clo, 2-(2,6-dichloroanilino)-2-imidazoline] | 2.9 ± 0.8 | 2.9 ± 0.8 | did not produce any significant plasma GH increase | 6.5 |  |  |  | 
GHRH: growth hormone releasing hormone, GRF 1-29 (Serono, Spain) (YADAIFTNSYRKVLGQLSARKLLQDIMSR; ends and bridges not checked; UniProt P01286 32-60, looked up, fragment) | 9.6 ± 2 | 9.6 ± 2 | slight but significant increase in plasma GH |  | 45 | 17.1 ± 4.3 | 17.1 ± 4.3 | 25.8 ± 5.6
